The values that follow come from PMC3118119, “Functional characterization of an alkaline exonuclease and single strand annealing protein from the SXT genetic element of Vibrio cholerae” (BMC Molecular Biology, 2011).

Where a name gives a salt, the structure may show the parent alone. Read-outs that look alike come from different tables or passages of the source.

The target of one series is SXT-Exo (S066) (Vibrio cholerae, UniProt Q8KQV9). The series is described as follows: quenched PicoGreen dsDNA exonuclease assay. The series is classed as biochemical.
Series [1] addresses SXT-Exo alkaline exonuclease (S066) from the SXT genetic element of Vibrio cholerae (SXT integrating conjugative element of Vibrio cholerae) (UniProt Q79S39). The series is described as follows: SEC; Superdex 200 HR 10/300 GL, 25 mM Tris-HCl pH7.4, 150 mM NaCl, 1 mM EDTA, 5 mM imidazole, 0.4 ml/min, 4°C; column calibrated with protein standards; oligomer size from the apparent molecular weight.

The target in another series is P03697. Described as above.
The next series deals with Q79S39. The description is as above.

Sequence of SXT-Exo (S066) (Q8KQV9 1-338 limits assumed): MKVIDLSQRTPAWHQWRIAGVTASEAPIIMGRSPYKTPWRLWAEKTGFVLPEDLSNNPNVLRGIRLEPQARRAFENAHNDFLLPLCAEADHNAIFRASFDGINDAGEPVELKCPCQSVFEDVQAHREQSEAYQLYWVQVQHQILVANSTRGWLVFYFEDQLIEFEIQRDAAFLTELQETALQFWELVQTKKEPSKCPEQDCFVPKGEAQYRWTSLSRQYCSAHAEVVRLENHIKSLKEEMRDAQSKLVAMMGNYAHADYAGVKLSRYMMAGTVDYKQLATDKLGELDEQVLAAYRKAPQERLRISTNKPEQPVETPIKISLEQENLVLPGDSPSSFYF

For orientation: IC50 means the concentration that gives 50% inhibition. Take `O=P(O)(O)O` [sodium phosphate]: it took 25 mM to reach half-maximal inhibition against SXT-Exo (S066) (IC50) (IC50).

As a reminder, the stoichiometry N is the number of molecules, sites or subunits per partner or assembly. Consider “SXT-Exo alkaline exonuclease (S066) from the SXT genetic element of Vibrio cholerae (from UniProt Q79S39 1-215) (enzyme)”, for which the stoichiometry N in series [1] was found to be 3. Molecule `O=S(=O)(O)O` [potassium sulfate] showed an IC50 against SXT-Exo (S066) of about 35 mM. In turn, `O=S(=O)(O)O` [sodium sulfate] had an IC50 against SXT-Exo (S066) (IC50) of about 20 mM.

B1: lambda-Exo alkaline exonuclease from bacteriophage lambda (protein)
chain: MTPDIILQRTGIDVRAVEQGDDAWHKLRLGVITASEVHNVIAKPRSGKKWPDMKMSYFHTLLAEVCTGVAPEVNAKALAWGKQYENDARTLFEFTSGVNVTESPIIYRDESMRTACSPDGLCSDGNGLELKCPFTSRDFMKFRLGGFEAIKSAYMAQVQYSMWVTRKNAWYFANYDPRMKREGLHYVVIERDEKYMASFDEIVPEFIEKMDEALAEIGFVFGEQWR
On to B1, for which, in the series with P03697, the “monomers per oligomer from the SEC apparent molecular weight” value is reported as “corresponded to 3.35 protein monomers”.

B2: SXT-Exo alkaline exonuclease (S066) from the SXT genetic element of Vibrio cholerae (protein)
chain: MKTLSERLNHALQLTGVTQSELARRIGIKQQSISQICSGKSARSRYTMQIAEALRVNAHWLATGDGEIGLGVGNVEVGPDIKGRIPLINWVQAGDWTEIAEGFAHEDAEEWREVTGKAHEGCFALRVKGDSMENPSGKKSIPEGAVIVVDPELPYSSGSLVVARLDDSKEATFKQLVIDGEQKYLKPLNPQYPAIPINGNCTIIGVVRQAIIDFW
On to B2, for which the “monomers per oligomer from the SEC apparent molecular weight” value with Q79S39 is listed as “corresponded to ca. 3.5 SXT-Exo monomers”.
